Data as given in patent US12384777B2 (Tay Therapeutics Limited, priority 2019, dated 2025).
Where two headings read alike, the source gives them in different places. Values belong to the compound of their own block, whether it stands above or below them.

Assays:
[1] = molecular target: BRD4 BD1 (Homo sapiens (Human), UniProt O60885); experiment: Bromodomain binding assay (T7 phage display, qPCR), BRD4 BD1
Protocol: (§1) T7 phage strains displaying bromodomains were grown in parallel in 24-well blocks in an E. coli host derived from the BL21 strain. E. coli were grown to log-phase and infected with T7 phage from a frozen stock (multiplicity of infection=0.4) and incubated with shaking at 32° C. until lysis (90-150 min). The lysates were centrifuged (5,000×g) and filtered (0.2 μm) to remove cell debris. Streptavidin-coated magnetic beads were treated with biotinylated small molecule or acetylated peptide ligands for 30 min at RT to generate affinity resins for bromodomain assays. The ligated beads were blocked with excess biotin and washed with blocking buffer (SeaBlock (Pierce), 1% BSA, 0.05% Tween 20, 1 mM DTT) to remove unbound ligand and to reduce non-specific phage binding. Binding reactions were assembled by combining bromodomains, ligated affinity beads, and test compounds in 1× binding buffer (16% SeaBlock, 0.32×PBS, 0.02% BSA, 0.04% Tween 20, 0.004% Sodium azide, 7.9 mM DTT). Test compounds were prepared as 1000× stocks in 100% DMSO and subsequently diluted 1:25 in MEG. The compounds were then diluted directly into the assays such that the final concentrations of DMSO and MEG were 0.1% and 2.4%, respectively. All reactions were performed in polypropylene 384-well plates in a final volume of 0.02 ml. The assay plates were incubated at RT with shaking for 1 hr and the affinity beads were washed with wash buffer (1×PBS, 0.05% Tween 20). The beads were then re-suspended in elution buffer (1×PBS, 0.05% Tween 20, 2 μM non-biotinylated affinity ligand) and incubated at RT with shaking for 30 min. The bromodomain concentration in the eluates was measured by quantitative polymerase chain reaction (qPCR).
(§2) An 11-point 3-fold serial dilution of each test compound was prepared in 100% DMSO at 1000× final test concentration. All compounds were distributed by acoustic transfer (non-contact dispensing) in 100% DMSO. The compounds were then diluted directly into the assays such that the final concentration of DMSO was 0.09%. Most dissociation constants were determined using a compound top concentration=10,000 nM. If the initial dissociation constant determined was <0.169 nM (the lowest concentration tested), the measurement was repeated with a serial dilution starting at a lower top concentration.
(§3) The same bromodomain assay procedure as that outlined above was used. Example compounds were screened at 30 times their Kd, and results for primary screen binding interactions are reported as ‘% Ctrl’, where lower numbers indicate stronger hits in the matrix.

[2] = test system: human liver hepatocytes; experiment: Intrinsic clearance in human liver hepatocytes; type: in vitro ADME; details: human cryopreserved hepatocytes, 0.5 μM test compound
Protocol: Vials of human cryopreserved hepatocytes, supplied by Life Technologies, were thawed according to manufacturer's instructions and cells re-suspended in Williams Medium E (WME) containing cell maintenance supplement pack (CM4000, Life Technologies). Hepatocytes were incubated in suspension (0.5 million cells/mL) in 48 well non-collagen coated cell culture plates for 10 min at 37° C., 5% CO2. Upon addition of an equal volume of supplemented WME containing 1 μM test compound, an aliquot of incubation solution was removed to acetonitrile containing internal standard (final concentration 0.5 μM test compound and a cell density of 0.25 million cells/mL). Similarly, aliquots were removed at 3, 6, 9, 15, 30, 45, 60, 90 and 120 min. 100 μL of 80:20 water:acetonitrile was added to all samples and the analysis plate was centrifuged for 10 min at RT prior to injection and analysis of samples by UPLC-MS/MS. The response (area ratio of test compound to internal standard) was plotted against time using an exponential decay model from which rate of disappearance was calculated.

[3] = Solubility in topical formulations; type: physicochemical; details: thermodynamic from solid
Protocol: The solubilities of solid exemplary compounds were determined in a selection of solvents and solvent combinations (Transcutol, 50:50 Transcutol:water, Labrasol, propylene glycol and 1:5:4 ethanol:propylene glycol:water), after equilibration. An appropriate volume of each combination was added to a manual weighing of solid compound to provide a 20 mg/mL concentration. The resulting suspension was shaken at 1000 rpm for 5 hr at 32° C. before centrifugation at 13,000×g for 10 min to pellet any precipitate. The supernatant solution was removed and inserted into a HPLC vial and quantified by HPLC-UV against a calibration of a known concentration of the compound in DMSO.

[4] = Stability in human skin S9 fraction; type: in vitro ADME; details: 0.3 mg/mL S9, NADPH, UDPGA, 0.5 μM compound; for half-life at 0.5 μM: human, human skin S9 fraction, pH 7.4, read-out: T1/2 (min) in human skin S9 fractions
Protocol: An incubation mixture was prepared containing 50 mM potassium phosphate buffer, pH 7.4), 0.3 mg/mL human skin S9 (Sekisui Xenotech), NADPH (final conc 0.8 mg/mL), UDPGA (final conc 0.16 mg/mL) and warmed to 37° C. for 5 min. The reaction was initiated upon addition of test compound (final concentration 0.5 μM). Immediately, at time zero, then at 3, 6, 15, 30, 60, 120 and 180 min, an aliquot (50 μL) of the incubation mixture was removed and mixed with acetonitrile (100 μL) to terminate the reaction. Internal standard was added to all samples, the samples centrifuged to sediment precipitated protein and the plates then sealed prior to UPLC-MS/MS analysis using a Quattro Premier XE (Waters corporation, USA).
Grafit (Erithacus Ltd) was used to calculate the exponential decay and consequently the rate constant (k) from the ratio of peak area of test compound to internal standard at each timepoint. The half life (T1/2) of each test compound was determined using the following equation: T1/2=0.693/k

[5] = test system: CD4+ T-cells stimulated by CD2, CD3 and CD28 antibodies; experiment: Cellular activity IL-4: reduction of IL-4 levels in activated CD4+ T-cells; type: cell-based, human; details: Homo sapiens, T-cell
Protocol: • 1. CD4^+ T-cells are isolated from cryopreserved human peripheral blood mononuclear cells (PBMCs) using EasySep™ Kit (Cat. No. 17952, Stemcell Technologies). • 2. CD2, CD3 and CD28 antibodies coated beads from T cell Activation/Expansion Kit (Cat. No. 130-091-441, Miltenyi Biotec) are added to the CD4^+ T-cells at a bead-to-cell ratio of 1:2. • 3. CD4^+ T-cells along with the beads are seeded at 2×10^5 cells/well in a round bottom 96-well plate and treated with different compounds and controls in a total volume of 200 μl. • 4. The cells are cultured for 48 hrs at 37° C., 5% CO2. • 5. Supernatant is collected and IL-4 is analysed by ELISA.

[6] = molecular target: BRD2(1) (Homo sapiens (Human), UniProt P25440); experiment: Bromodomain binding assay, BRD2(1)
Protocol: as §1
(§4) An 11-point 3-fold serial dilution of each test compound was prepared in 100% DMSO at 1000× final test concentration. […] Most dissociation constants were determined using a compound top concentration=10,000 nM. If the initial dissociation constant determined was <0.169 nM (the lowest concentration tested), the measurement was repeated with a serial dilution starting at a lower top concentration. […]

[7] = molecular target: BRD2(2) (Homo sapiens (Human), UniProt P25440); experiment: Bromodomain binding assay, BRD2(2)
Protocol: as §1, §4

[8] = molecular target: BRD4 BD2 (Homo sapiens (Human), UniProt O60885); experiment: Bromodomain binding assay (T7 phage display, qPCR), BRD4 BD2
Protocol: as §1, §2, §3

[9] = test system: healthy human skin stimulated by a Th2 or Th17 biasing cocktail; experiment: Th2 and Th17 stimulation of human skin explants, IL-4 / IL-17A mRNA; type: cell-based
Protocol: • 1. Freshly excised healthy human skin tissue from abdominoplasties is defatted, cleaned and sectioned into 7 mm biopsies. • 2. The biopsies are placed in Transwell® inserts with the epidermis apical and exposed to air and the dermis submerged in media in the basal chamber. • 3. The biopsies are pre-treated overnight at 37° C., 5% CO2 with different compounds and controls added to the media in the basal chamber. • 4. The next day, contents of the basal chamber is replaced with fresh media containing the test compound and a stimulation cocktail for either Th2 inflammation (proprietary Medpharm cocktail) or Th17 inflammation (mix of antibodies against CD3, CD28, IL-4, IFNγ and recombinant IL-1β, IL-6, IL-21, TGF-β). • 5. The biopsies are incubated at 37° C., 5% CO2 for a further 24 hrs. • 6. After harvesting, the biopsies are cut in half, and one half is homogenized and used for RNA extraction by standard methods. IL-4 or IL-17A is assessed by RT-qPCR.

[10] = molecular target: BRDT(2) (Homo sapiens (Human), UniProt Q58F21); experiment: Bromodomain binding assay, BRDT(2)
Protocol: as §1, §4

[11] = molecular target: BRD3(2) (Homo sapiens (Human), UniProt Q15059); experiment: Bromodomain binding assay, BRD3(2)
Protocol: as §1, §4

[12] = molecular target: BRD3(1) (Homo sapiens (Human), UniProt Q15059); experiment: Bromodomain binding assay, BRD3(1)
Protocol: as §1, §4

[13] = molecular target: BRDT(1) (Homo sapiens (Human), UniProt Q58F21); experiment: Bromodomain binding assay, BRDT(1)
Protocol: as §1, §4

[14] = Hydrolytic stability at a range of pHs; type: physicochemical; details: 60° C., 6 days
Protocol: To test the hydrolytic stability a 1 mg/mL solution of test materials was made in DMSO (0.1% solution). To 300 μL of each solution in a HPLC vials was added 1200 μL of one of the following: pH 4.0 buffer—left at 60° C. for 5 days. Samples taken t=0 hr and 6 days pH 5.5 buffer—left at 60° C. for 5 days. Samples taken t=0 hr and 6 days pH 7.4 buffer—left at 60° C. for 5 days. Samples taken t=0 hr and 6 days A 100 μL aliquot was taken at each time point and added to 900 μL of DMSO. This sample was used to determine % decomposition.
% decomposition was measured with a Bruker MicrOTOF II focus ESI Mass Spectrometer connected in parallel to Dionex Ultimate 3000 RSLC system with diode array detector.

[15] = Labrasol, oil or lipid, 5 hr at 32° C., read-out: Solubility in LB (Labrasol)
[16] = Transcutol, organic solvent or mixture, 5 hr at 32° C., read-out: Solubility in TC (Transcutol)
[17] = Transcutol:water 1:1, aqueous with cosolvent or surfactant or cyclodextrin, 5 hr at 32° C., read-out: Solubility in TC:water 1:1
[18] = propylene glycol, organic solvent or mixture, 5 hr at 32° C., read-out: Solubility in PG (Propylene glycol)
[19] = 48 hrs, ELISA, read-out: EC50 reduction of IL-4 levels
[20] = read-out: cellular EC50 values, reduction of IL-4 levels
[21] = single point, screened at 30 times Kd, lower numbers indicate stronger hits

BRD2(2), sequence (P25440 344-453): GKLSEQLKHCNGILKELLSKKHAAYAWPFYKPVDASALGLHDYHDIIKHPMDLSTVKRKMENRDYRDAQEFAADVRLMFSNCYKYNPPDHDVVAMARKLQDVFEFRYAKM
BRD3(1), sequence (Q15059 34-140): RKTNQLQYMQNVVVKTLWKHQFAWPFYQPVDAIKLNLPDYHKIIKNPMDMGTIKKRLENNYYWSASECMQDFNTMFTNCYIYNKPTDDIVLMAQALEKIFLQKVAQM
BRD3(2), sequence (Q15059 306-415): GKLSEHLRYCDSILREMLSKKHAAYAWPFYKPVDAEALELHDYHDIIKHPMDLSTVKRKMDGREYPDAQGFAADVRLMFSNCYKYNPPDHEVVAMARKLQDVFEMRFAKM
BRD2(1), sequence (P25440 74-180): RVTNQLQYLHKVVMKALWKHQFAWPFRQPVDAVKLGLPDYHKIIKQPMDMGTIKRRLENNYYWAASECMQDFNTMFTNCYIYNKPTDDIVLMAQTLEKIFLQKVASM

- Kd ([1]; read-out: BRD4 BD1 Kd): ≤ 10 nM
- Intrinsic clearance, % Liver Blood Flow [2]: 94 % Liver Blood Flow
- solubility at 5 hr [3, 15]: > 10000 µg/mL
- solubility at 5 hr [3, 16]: > 10000 µg/mL
- solubility at 5 hr [3, 17]: 1000 to 10000 µg/mL
- solubility at 5 hr ([3]; ethanol:propylene glycol:water 1:5:4, aqueous with cosolvent or surfactant or cyclodextrin, 5 hr at 32° C., read-out: Solubility in EtOH:PG:water 1:5:4): 1000 to 10000 µg/mL
- solubility at 5 hr [3, 18]: > 10000 µg/mL
- solubility at 5 hr ([3]; topical formulation solvents and solvent combinations, 32 °C, organic solvent or mixture, read-out: solubilities in the formulations described): > 1000 µg/mL
- T1/2 (min) in human skin S9 fractions [4]: >120 min
- half-life at 0.5 μM [4]: > 120 min
- EC50 [5, 19]: 10 to 100 nM
- EC50 [5, 20]: < 100 nM
SMILES: Cn1cc(-c2cc(O)ccc2Oc2ccccc2)c2cc[nH]c2c1=O [Example 6, 4-(5-hydroxy-2-phenoxyphenyl)-6-methyl-1,6-dihydro-7H-pyrrolo[2,3-c]pyridin-7-one]

- Kd ([6]; dose response): > 3000 nM
- BRD2(1) % Ctrl [6, 21]: 100 % Ctrl
- Kd ([7]; dose response): < 10 nM
- BRD2(2) % Ctrl [7, 21]: 0.1 % Ctrl
- Kd ([1]; dose response, read-out: BRD4(1) Kd): > 3000 nM
- Kd ([1]; read-out: BRD4 BD1 Kd): > 1000 nM
- BRD4(1) % Ctrl [1, 21]: 90 % Ctrl
- Kd ([8]; dose response, read-out: BRD4(2) Kd): < 10 nM
- Kd ([8]; read-out: BRD4 BD2 Kd): ≤ 10 nM
- BRD4(2) % Ctrl [8, 21]: 8.7 % Ctrl
- Intrinsic clearance, % Liver Blood Flow [2]: <34 % Liver Blood Flow
- Kd ([10]; dose response): < 10 nM
- BRDT(2) % Ctrl [10, 21]: 13 % Ctrl
- Kd ([11]; dose response): < 10 nM
- BRD3(2) % Ctrl [11, 21]: 2.3 % Ctrl
- Kd ([12]; dose response): > 3000 nM
- BRD3(1) % Ctrl [12, 21]: 85 % Ctrl
- EC50 [5, 19]: 10 to 100 nM
- EC50 [5, 20]: < 100 nM
- Kd ([13]; dose response): > 3000 nM
- BRDT(1) % Ctrl [13, 21]: 100 % Ctrl
SMILES: CCNC(=O)c1cc2c(-c3ccn(C)c(=O)c3Oc3c(C)cc(F)cc3C)cn(C)c(=O)c2[nH]1 [Example 41, N-ethyl-4-(3-(4-fluoro-2,6-dimethylphenoxy)-1-methyl-2-oxo-1,2-dihydropyridin-4-yl)-6-methyl-7-oxo-6,7-dihydro-1H-pyrrolo[2,3-c]pyridine-2-carboxamide]
- % reduction in IL-4 mRNA (IL-4) ([9]; 2.5 μM, Th2 biasing cocktail): ++ (> 50% reduction)
- % reduction in IL-17A mRNA (IL-17) ([9]; 2.5 μM, Th17 biasing cocktail): +++ (> 75% reduction)
- reduction of IL-4 or IL-17 levels ([9]; Th2 or Th17 biasing cocktail): > 50%

- Kd ([1]; read-out: BRD4 BD1 Kd): 10 to 100 nM
- Intrinsic clearance, % Liver Blood Flow [2]: 88 % Liver Blood Flow
- pH 4.0 % decomposition ([14]; pH 4.0 buffer): 15%
- pH 5.5 % decomposition ([14]; pH 5.5 buffer): 30%
- pH 7.4 % decomposition ([14]; pH 7.4 buffer): 0%
- solubility at 5 hr [3, 15]: 1000 to 10000 µg/mL
- solubility at 5 hr [3, 16]: > 10000 µg/mL
- solubility at 5 hr [3, 17]: 1000 to 10000 µg/mL
- solubility at 5 hr [3, 18]: 1000 to 10000 µg/mL
- half-life at 0.5 μM [4]: > 120 min
SMILES: Cn1cc(-c2ccc(O)cc2Oc2ccccc2)c2cc[nH]c2c1=O [Example 2, 4-(4-hydroxy-2-phenoxyphenyl)-6-methyl-1,6-dihydro-7H-pyrrolo[2,3-c]pyridin-7-one]
